Residue numbers refer to the chain shown, from its start. Activity calls are given as the source filed them. The calls are words filed in the database; no cut-off is given here.
Assays:
Danio rerio [1] = organism: Danio rerio; assay: Toxicity in zebrafish AB embryos assessed as induction of patterning deffects at 10 uM single dose measured 72 hrs post fertilization; type: organism-based; conditions: in vivo
Danio rerio [2] = assay: Toxicity in zebrafish AB embryos assessed as induction of patterning deffects at 10 uM dosed every 24 hrs measured 72 hrs post fertilization; type: organism-based; conditions: in vivo
[3] = system: T1, Ecdysone receptor (Bombyx mori), P49881 [V454I,Y474E]; assay: (§1) Activation of Bombyx mori Ecdysone receptor V454I and Y474E mutant (amino acids 272-606) expressed in AB zebrafish embryos transfected with cytomegalovirus promoter-driven expression construct encoding chimeric transactivator composed of DBD and homodimerization domains of yeast Gal4 (amino acids 1-146) and VP16 activation domain (amino acids (468-490) at 50 uM exposed for 2 to 6 hrs at 4 hrs post fertilization by Gal4 dependent luciferase reportre gene assay relative to untreated control
T1 sequence (whole entry): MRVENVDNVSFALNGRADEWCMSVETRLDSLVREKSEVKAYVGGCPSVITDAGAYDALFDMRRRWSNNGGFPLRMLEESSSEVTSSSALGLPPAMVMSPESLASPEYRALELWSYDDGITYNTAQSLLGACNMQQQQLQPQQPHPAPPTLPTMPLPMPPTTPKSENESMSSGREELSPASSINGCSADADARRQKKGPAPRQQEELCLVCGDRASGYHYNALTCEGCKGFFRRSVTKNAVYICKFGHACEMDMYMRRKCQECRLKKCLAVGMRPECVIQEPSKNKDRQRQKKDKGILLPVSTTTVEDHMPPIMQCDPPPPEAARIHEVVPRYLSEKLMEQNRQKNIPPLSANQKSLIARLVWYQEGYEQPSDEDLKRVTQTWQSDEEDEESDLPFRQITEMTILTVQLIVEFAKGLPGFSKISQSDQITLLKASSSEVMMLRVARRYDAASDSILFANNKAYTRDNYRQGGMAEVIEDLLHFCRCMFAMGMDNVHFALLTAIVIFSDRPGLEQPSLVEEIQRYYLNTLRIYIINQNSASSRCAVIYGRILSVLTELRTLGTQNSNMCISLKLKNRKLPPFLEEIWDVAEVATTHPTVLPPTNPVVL

[4] = system: T1, Ecdysone receptor (Bombyx mori), P49881 [V454I,Y474E]; assay: as §1, with “Induction of nuclear translocation” for “Activation”, “1” for “50”, “30 mins” for “2 to 6 hrs”
[5] = system: T1, Ecdysone receptor (Bombyx mori), P49881 [V454I,Y474E]; assay: as §1, with “272-606)-mediated myl7 gene expression” for “272-606)”, “(468-490) assessed as myl7-promoter driven heart specific GFP expression” for “(468-490)”, “10” for “50”, “during 3” for “for 2”, “48” for “6 hrs at 4”
[6] = target: T2, Ecdysone receptor (Bombyx mori) (UniProt P49881); assay: as §1, with “receptor” for “receptor V454I and Y474E mutant”, “(413-490)” for “(468-490)”, “10” for “50”, “16” for “2 to 6”, “hrs” for “hrs at 4 hrs post fertilization”
T2 sequence (whole entry): T1 sequence (whole entry) with I454V, E474Y

[7] = target: T2, Ecdysone receptor (Bombyx mori); assay: as §1, with “receptor” for “receptor V454I and Y474E mutant”, “(413-456)” for “(468-490)”, “10” for “50”, “16” for “2 to 6”, “hrs” for “hrs at 4 hrs post fertilization”
[8] = target: T2, Ecdysone receptor (Bombyx mori); assay: as §1, with “receptor” for “receptor V454I and Y474E mutant”, “(413-468)” for “(468-490)”, “10” for “50”, “16” for “2 to 6”, “hrs” for “hrs at 4 hrs post fertilization”
[9] = target: T2, Ecdysone receptor (Bombyx mori); assay: as §1, with “receptor” for “receptor V454I and Y474E mutant”, “(413-476)” for “(468-490)”, “10” for “50”, “16” for “2 to 6”, “hrs” for “hrs at 4 hrs post fertilization”
[10] = target: T2, Ecdysone receptor (Bombyx mori); assay: as §1, with “receptor” for “receptor V454I and Y474E mutant”, “([…])” for “(468-490)”, “10” for “50”, “16” for “2 to 6”, “hrs” for “hrs at 4 hrs post fertilization”
[11] = target: T2, Ecdysone receptor (Bombyx mori); assay: as §1, with “receptor” for “receptor V454I and Y474E mutant”, “10” for “50”, “16” for “2 to 6”, “hrs” for “hrs at 4 hrs post fertilization”
[12] = system: T1, Ecdysone receptor (Bombyx mori), P49881 [V454I,Y474E]; assay: as §1, with “(456-490)” for “(468-490)”, “10” for “50”, “16” for “2 to 6”, “hrs” for “hrs at 4 hrs post fertilization”
[13] = system: T1, Ecdysone receptor (Bombyx mori), P49881 [V454I,Y474E]; assay: as §1, with “10” for “50”, “16” for “2 to 6”, “hrs” for “hrs at 4 hrs post fertilization”
[14] = target: T2, Ecdysone receptor (Bombyx mori); assay: as §1, with “receptor” for “receptor V454I and Y474E mutant”, “HEK293 cells” for “AB zebrafish embryos”, “(413-490)” for “(468-490)”, “10” for “50”, “16” for “2 to 6”, “hrs” for “hrs at 4 hrs post fertilization”; type: cell-based
[15] = target: T2, Ecdysone receptor (Bombyx mori); assay: as §1, with “receptor” for “receptor V454I and Y474E mutant”, “HEK293 cells” for “AB zebrafish embryos”, “(413-456)” for “(468-490)”, “10” for “50”, “16” for “2 to 6”, “hrs” for “hrs at 4 hrs post fertilization”; type: cell-based
[16] = target: T2, Ecdysone receptor (Bombyx mori); assay: as §1, with “receptor” for “receptor V454I and Y474E mutant”, “HEK293 cells” for “AB zebrafish embryos”, “(413-468)” for “(468-490)”, “10” for “50”, “16” for “2 to 6”, “hrs” for “hrs at 4 hrs post fertilization”; type: cell-based
[17] = target: T2, Ecdysone receptor (Bombyx mori); assay: as §1, with “receptor” for “receptor V454I and Y474E mutant”, “HEK293 cells” for “AB zebrafish embryos”, “(413-476)” for “(468-490)”, “10” for “50”, “16” for “2 to 6”, “hrs” for “hrs at 4 hrs post fertilization”; type: cell-based
[18] = target: T2, Ecdysone receptor (Bombyx mori); assay: as §1, with “receptor” for “receptor V454I and Y474E mutant”, “HEK293 cells” for “AB zebrafish embryos”, “(456-490)” for “(468-490)”, “10” for “50”, “16” for “2 to 6”, “hrs” for “hrs at 4 hrs post fertilization”; type: cell-based
[19] = target: T2, Ecdysone receptor (Bombyx mori); assay: as §1, with “receptor” for “receptor V454I and Y474E mutant”, “HEK293 cells” for “AB zebrafish embryos”, “10” for “50”, “16” for “2 to 6”, “hrs” for “hrs at 4 hrs post fertilization”; type: cell-based
[20] = system: T1, Ecdysone receptor (Bombyx mori), P49881 [V454I,Y474E]; assay: as §1, with “272-606)-mediated mylz2 gene expression” for “272-606)”, “(468-490) assessed as mylz2-promoter driven fats skeletal muscle specific GFP expression” for “(468-490)”, “10” for “50”, “during 3” for “for 2”, “48” for “6 hrs at 4”

| Compound | Activity (Danio rerio [1]) | Activity (Danio rerio [2]) | Activity [3] | Activity [4] | Activity [5] | fold change (FC) [6] | fold change (FC) [7] | fold change (FC) [8] | fold change (FC) [9] | fold change (FC) [10] | fold change (FC) [11] | fold change (FC) [12] | fold change (FC) [13] | fold change (FC) [14] | fold change (FC) [15] | fold change (FC) [16] | fold change (FC) [17] | fold change (FC) [18] | fold change (FC) [19] | Activity [20] |
| --- | --- | --- | --- | --- | --- | --- | --- | --- | --- | --- | --- | --- | --- | --- | --- | --- | --- | --- | --- | --- |
| CCc1ccc(C(=O)NN(C(=O)c2cc(C)cc(C)c2)C(C)(C)C)cc1 [TEBUFENOZIDE] | Non-toxic | Non-toxic | Active | Active | 44% | 0.8 | 1.13 | 5.05 | 1.73 | 42.2 | 113 | 212 | 1070 | 14.5 | 139 | 114 | 57 | 1420 | 880 | 69% |
| Cc1cc(C)cc(C(=O)N(NC(=O)c2ccc3c(c2C)OCCO3)C(C)(C)C)c1 |  | Non-toxic |  |  |  |  |  |  |  |  |  |  |  |  |  |  |  |  |  |  |
| CC(C)CC[C@@H](O)[C@](C)(O)[C@H]1CC[C@@]2(O)C3=CC(=O)[C@@H]4C[C@@H](O)[C@@H](O)C[C@]4(C)[C@H]3CC[C@]12C [PONASTERONE A] |  | Non-toxic |  |  |  |  |  |  |  |  |  |  |  | 6.05 | 26.1 | 44 | 18.7 | 55.5 | 19.5 |  |
| COc1cccc(C(=O)NN(C(=O)c2cc(C)cc(C)c2)C(C)(C)C)c1C [METHOXYFENOZIDE] |  | Non-toxic |  |  |  |  |  |  |  |  |  |  |  |  |  |  |  |  |  |  |

— ChEMBL document CHEMBL1240322, “Small-molecule regulation of zebrafish gene expression” (Nat Chem Biol, 2007)
